Measurements as given in US20220073536A1 (Rigel Pharmaceuticals, Inc., priority 2003, published 2022).
Where a name gives a salt, the structure may show the parent alone. Blank lines part the entries; values can stand above or below the compound they belong to.

Tests used:
[1] = tested on: cultured human mast cells (CHMC); assay: CHMC low cell density ionomycin activation: tryptase assay; type: cell-based; conditions: read-out: LD Tryptase, CHMC, Iono, 3 pt
[2] = tested on: cultured human mast cells (CHMC); assay: CHMC low cell density IgE activation: tryptase assay; type: cell-based; conditions: IgE activation
Summary of the method: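 Low-density CHMC, 1000-1500 cells/well in MT; 1 hr 37 °C; anti-IgE challenge 30 min 37 °C; supernatant tryptase via fluorogenic substrate, 30 min RT.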

[3] = low cell density, 3 pt, read-out: LD Tryptase, CHMC, IgE, 3 pt
[4] = low cell density CHMC, tryptase release, 3 point, read-out: LD Tryptase, CHMC, IgE, 3 pt
[5] = low cell density CHMC, tryptase, 3 pt
[6] = low cell density CHMC, tryptase, 3 pt, read-out: LD Tryptase, CHMC, IgE, 3 pt
[7] = low cell density CHMC, tryptase, 8 pt, read-out: LD Tryptase, CHMC, IgE, 8 pt
[8] = Homo sapiens, Mast cell, low cell density CHMC, tryptase release, 3 pt
[9] = Homo sapiens, Mast cell, low cell density CHMC, tryptase release, 3 pt, read-out: LD Tryptase, CHMC, IgE, 3 pt
[10] = Homo sapiens, Mast cell, low cell density CHMC, tryptase release, 8 pt, read-out: LD Tryptase, CHMC, IgE, 8 pt
[11] = low cell density, 8 pt, read-out: LD Tryptase, CHMC, IgE, 8 pt

- IC50 ([1]; low cell density, 3 pt): > 10 µM
- IC50 [2, 3]: > 10 µM
Compound: 2-Chloro-N4- (3,5-dichloro-4-methoxyphenyl-5-fluoro-N4-methyl-4-pyrimidineamine [Compound 491]

- IC50 ([1]; low cell density CHMC, tryptase release, 3 point): > 10 µM
- IC50 [2, 4]: > 10 µM
Compound: 2-Chloro-N4-[3-chloro-4- (N-methylamino)carbonylmethyleneoxyphenyl]-5-fluoro-N4-methyl-4-pyrimidineamine [Compound 661]

- IC50 [1, 5]: > 10 µM
- IC50 [2, 6]: < 10 µM
- IC50 [2, 7]: < 10 µM
Compound: 5-Fluoro-N4- (4-hydroxy-3,4-dihydro-2H-1-benzopyran-6-yl)-N2-[4- (oxazol-5-yl)phenyl]-2,4-pyrimidinediamine [Compound 1290]

- IC50 [1, 5]: > 10 µM
- IC50 [2, 6]: < 10 µM
- IC50 [2, 7]: < 10 µM
Compound: NC1CCOc2ccc(Nc3nc(Nc4cccc(-c5cnco5)c4)ncc3F)cc21 (racemic) [Compound 1292, (R,S)-N4-[4-Amino-3,4-dihydro-2H-1-benzopyran-6-yl]-5-fluoro-N2-[3-(oxazol-5-yl)phenyl]-2,4-pyrimidinediamine]

- IC50 [1, 8]: > 10 µM
- IC50 [2, 9]: < 10 µM
- IC50 [2, 10]: < 10 µM
Compound: COc1cc(C)c(Nc2ncc(F)c(Nc3ccc4c(c3)NC(=O)[C@H](C)O4)n2)cc1Cl [Compound 214]

- IC50 [1, 8]: > 10 µM
- IC50 [2, 9]: < 10 µM
- IC50 [2, 10]: < 10 µM
Compound: COc1cc(OC)c(-c2nc(N)nc(Nc3ccc4c(c3)NC(=O)[C@H](C)O4)c2F)cc1Cl [Compound 215]

- IC50 [2, 7]: < 10 µM
Compound: N2- (3,5-Dichloro-4-hydroxyphenyl)-5-fluoro-N4- (4-[N-[methoxycarbonylmethylene]aminocarbonyl]phenyl)-2,4-pyrimidinediamine [Compound 1329]

- IC50 [2, 6]: > 10 µM
- IC50 [2, 7]: > 10 µM
Compound: N2- (4-Aminocarbonylphenyl)-5-fluoro-N4- (4-[N-[methoxycarbonylmethylene]aminocarbonyl]phenyl)-2,4-pyrimidinediamine [Compound 1333]

- IC50 [2, 7]: < 10 µM
Compound: N2-[3,5-Bis (hydroxymethylene)phenyl]-N4- (3,4-dichlorophenyl)-5-fluoro-2,4-pyrimidinediamine [Compound 346]

- IC50 [2, 7]: < 10 µM
Compound: N2-[3,5-Bis (hydroxymethylene)phenyl]-N4- (3,4-ethylenedioxyphenyl)-5-fluoro-2,4-pyrimidinediamine [Compound 342]

- IC50 [2, 7]: < 10 µM
Compound: N2-[3,5-Bis (hydroxymethylene)phenyl]-N4- (3-chloro-4-methoxyphenyl)-5-fluoro-2,4-pyrimidinediamine [Compound 345]

- IC50 [2, 6]: < 10 µM
Compound: N4- (3,4-Dichlorophenyl)-5-fluoro-N2- (4-[N-[methoxycarbonylmethylene]aminocarbonyl]phenyl)-N4-methyl-2,4-pyrimidinediamine [Compound 1348]

- IC50 [2, 6]: < 10 µM
Compound: N4- (3,4-Ethylenedioxyphenyl)-5-fluoro-N2-[3,4-(tetrafluoroethylenedioxy)phenyl]-2,4-pyrimidinediamine [Compound 363]

- IC50 [2, 7]: < 10 µM
Compound: N4- (5-Amino-1,2,4-triazol-3-yl)-5-fluoro-N2-[3- (N-methylamino)carbonylmethyleneoxyphenyl]-2,4-pyrimidinediamine [Compound 1251]

- IC50 [2, 6]: < 10 µM
- IC50 [2, 7]: < 10 µM
Compound: N4- (Aminocarbonylphenyl)-5-fluoro-N2- (4-[N-[methoxycarbonylmethylene]aminocarbonyl]phenyl)-2,4-pyrimidinediamine [Compound 1338]

- IC50 [2, 6]: < 10 µM
- IC50 [2, 7]: < 10 µM
Compound: N4- (Cyclopentyl)-5-fluoro-N2- (4-[N-[methoxycarbonylmethylene]aminocarbonyl]phenyl)-2,4-pyrimidinediamine [Compound 1351]

- IC50 ([2]; low cell density CHMC, tryptase release, 3 pt, read-out: LD Tryptase, CHMC, IgE, 3 pt): < 10 µM
Compound: N4-[benzoxathiazin-3 (4H)-one-6-yl]2-chloro-5-fluoro-4-pyrimidineamine [Compound 319]

The remaining lines, values behind:

Compound: CNC(=O)CNC(=O)c1ccc(Nc2ncc(F)c(Nc3ccc4c(c3)C(NC(=O)OC(C)(C)C)CCO4)n2)cc1 (racemic) [Compound 1298, (R,S)-N4-[4-(N-tert-Butoxycarbonyl)amino-3,4-dihydro-2H-1-benzopyran-6-yl]-5-fluoro-N2-[4-[N-(N-methylamino)carbonylmethylene]aminocarbonylphenyl]-2,4-pyrimidinediamine]
- IC50 [1, 5]: > 10 µM
- IC50 [2, 6]: < 10 µM

Compound: CNC(=O)COc1cccc(Nc2ncc(F)c(Nc3ccc4c(n3)NC(=O)C(C)(C)O4)n2)c1 [Compound 992, N4-(2,2-Dimethyl-3-oxo-4H-5-pyrid[1,4]oxazin-6-yl)-5-fluoro-N2-[3-(N-methylamino)carbonylmethyleneoxyphenyl]-2,4-pyrimidinediamine (+)-Camphorsulfonic Acid Salt]
- IC50 ([1]; low cell density, 3 pt): > 10 µM

Compound: N2- (2-Aminocarbonylphenyl)-N4- (2,2-dimethyl-3-oxo-4H-5-pyrid[1,4]oxazin-6-yl)-5-fluoro-2,4-pyrimidinediamine [Compound 1316]
- IC50 [2, 6]: < 10 µM
- IC50 [2, 7]: > 10 µM

Compound: N2- (3-Chloro-4-hydroxy-5-methylphenyl)-N4-[3,4-(difluoromethylenedioxy)phenyl]-5-fluoro-2,4-pyrimidinediamine [Compound 567]
- IC50 ([2]; low cell density CHMC, tryptase release, 8 point, read-out: LD Tryptase, CHMC, IgE, 8 pt): < 10 µM

Compound: N2- (4-Aminocarbonylphenyl)-N4- (2,2-dimethyl-3-oxo-4H-5-pyrid[1,4]oxazin-6-yl)-5-fluoro-2,4-pyrimidinediamine [Compound 1315]
- IC50 [2, 6]: < 10 µM

Compound: N4- (2,2-Dimethyl-3-oxo-4H-5-pyrid[1,4]oxazin-6-yl)-5-fluoro-N2- (3-methoxycarbonylppyrid-2yl)-2,4-pyrimidinediamine [Compound 1314]
- IC50 [2, 6]: < 10 µM

Compound: N4- (2,2-Dimethyl-3-oxo-4H-5-pyrid[1,4]oxazin-6-yl)-5-fluoro-N2- (4-methoxycarbonylphenyl)-2,4-pyrimidinediamine [Compound 1313]
- IC50 [2, 6]: < 10 µM

Compound: N4- (2,2-Dimethyl-3-oxo-4H-5-pyrid[1,4]oxazin-6-yl)-5-fluoro-[1-(2-hydroxymethyl)-2-trifluoromethylbenzimidazol-5-yl]-2,4-pyrimidinediamine [Compound 924]
- IC50 [2, 11]: < 10 µM

Compound: N4- (2,2-Dimethyl-3-oxo-4H-5-pyrid[1,4]oxazin-6-yl)-N2- (1-methyl-2-trifluoromethylbenzimidazol-5-yl)-2,4-pyrimidinediamine [Compound 915]
- IC50 [2, 11]: < 10 µM

Compound: N4- (2,2-Dimethyl-3-oxo-4H-N4-oxo-5-pyrido[1,4]oxazin-6-yl)-5-fluoro-N2- (3,4,5-trimethoxyphenyl)-2,4-pyrimidinediamine [Compound 1340]
- IC50 [2, 6]: < 10 µM
- IC50 [2, 7]: < 10 µM

Compound: N4- (2,2-Dimethyl-3-oxo-4H-benz[1,4]oxazin-6-yl)-5-fluoro-N2-{1-methyl-2-[ (methylsulfonyl)methyl]benzimidazol-5-yl}-2,4-pyrimidinediamine [Compound 967]
- IC50 [2, 3]: < 10 µM
- IC50 [2, 11]: < 10 µM

Compound: N4- (2,2-Dimethyl-3-oxo-4H-benz[1,4]oxazin-6-yl)-5-fluoro-[1-(2-hydroxymethyl)-2-trifluoromethylbenzimidazol-5-yl]-2,4-pyrimidinediamine [Compound 922]
- IC50 [2, 11]: < 10 µM

Compound: N4- (3,4-Dichlorophenyl)-5-fluoro-N2-[2- (4-morpholinomethyl)-1H-benzimidazol-5-yl]-2,4-pyrimidinediamine [Compound 959]
- IC50 [2, 11]: < 10 µM

Compound: N4- (3,4-Dichlorophenyl)-5-fluoro-[1- (2-hydroxymethyl)-2-trifluoromethylbenzimidazol-5-yl]-2,4-pyrimidinediamine [Compound 920]
- IC50 [2, 3]: < 10 µM
- IC50 [2, 11]: < 10 µM

Compound: N4- (3-Chloro-4-methoxyphenyl)-5-fluoro-[1- (2-hydroxymethyl)-2-trifluoromethylbenzimidazol-5-yl]-2,4-pyrimidinediamine [Compound 921]
- IC50 [2, 3]: < 10 µM
- IC50 [2, 11]: < 10 µM

Compound: N4-[3,4- (Difluoromethylenedioxy)phenyl]-5-fluoro-N2- (3,4,5-trimethoxyphenyl)-2,4-pyrimidinediamine [Compound 561]
- IC50 [2, 11]: < 10 µM

Compound: N4-[3,4- (Difluoromethylenedioxy)phenyl]-5-fluoro-N2-[2- (N-methylamino)carbonylindol-7-yl]-2,4-pyrimidinediamine [Compound 570]
- IC50 [2, 4]: < 10 µM

Compound: N4-[3,4- (Difluoromethylenedioxy)phenyl]-N2- (3,5-dimethoxyphenyl)-5-fluoro-2,4-pyrimidinediamine [Compound 562]
- IC50 [2, 3]: < 10 µM
- IC50 [2, 11]: < 10 µM

Compound: N4-[3,4- (Difluoromethylenedioxy)phenyl]-N2- (3,5-dimethylphenyl)-5-fluoro-2,4-pyrimidinediamine [Compound 563]
- IC50 [2, 3]: < 10 µM
- IC50 [2, 11]: < 10 µM
